From patent US20250009743A1, “METHODS OF TREATING CANCERS USING STING AGONISTS” (Dana-Farber Cancer Institute, Inc., priority 2021, published 2025)

Key:
[1] = tested on: BP tumor cells; experiment: DNA damage in BP tumor cells (cytosolic dsDNA staining, γ-H2AX flow cytometry); assay type: cell-based, mouse
Protocol: For flow cytometry analyses of tumor and TDLN samples, single-cell suspensions were obtained as described above (Tissue Digestion). Cells were stained in cold FACS buffer (PBS containing 0.2% BSA and 5 mM EDTA) with LIVE/DEAD Fixable Aqua Dead Cell Stain (Thermo Fisher) for 30 min on ice, followed by blocking with anti-CD16/32 (BioLegend) for 20 min on ice. Cells were then incubated in FACS buffer for 30 min on ice with antibodies specific to CD45 (clone 30-F11, BioLegend), TCR β chain (clone H57-597, BioLegend), CD38 (clone 145-2C11, BioLegend), CD4 (clone RM4-5, BioLegend), CD8a (clone 53-6.7, BioLegend), PD-1 (clone 29F.1A12, BioLegend), CD44 (clone IM7, BioLegend), CD62L (clone MEL-14, BioLegend), IFN-γ (clone XMG1.2, BioLegend), TNF-α (clone MP6-XT22, BioLegend), Granzyme B (clone NGZB, eBioscience), CD11c (clone N418, BioLegend), I-A/I-E (clone M5/114.15.2, BioLegend), CD80 (clone 16-10A1, BioLegend), CD86 (clone GL-1, BioLegend), CD103 (clone 2E7, BioLegend), CD11b (M1/70, BioLegend), F4/80 (clone BM8, BioLegend), phospho-TBK1 (Ser172) (clone D52C2, Cell Signaling Tech.) or phospho-IRF-3 (Ser396) (clone D601M, Cell Signaling Tech.). For intracellular staining, Foxp3/Transcription Factor Staining Buffer Set (eBioscience, #00-5523-00) was used for fixation and permeabilization. For cytokine analysis, cells were stimulated with Leukocyte Activation Cocktail with protein transport inhibitor Brefeldin A (BD Biosciences, #550583) at 37° C. for 4 hours prior to the staining. Analysis of ϵ-HA2X (Ser139) was performed according to manufacturer's instructions. Briefly, ice-cold 70% ethanol (Decon) was added dropwise to the cell pellet while vortexing. Cells were then incubated at −20° C. for 1 hour and washed three times with cold staining buffer. […] All data were analyzed using FlowJo software.
BRCA1-deficient tumor cells were cultured on glass coverslips in 6-well plates. […] Fluorescence intensity of cytosolic dsDNA were analyzed using ImageJ/Fiji software as described in Pantelidou C, et al. Cancer Discov 2019; 9 (6): 722-37.

[2] = tested on: PBM-R tumors; experiment: Flow cytometry of tumor-infiltrating immune cells in PBM-R tumor-bearing mice; assay type: in vivo, mouse; conditions: 14 days; for STING pathway and activated (CD86^+) conventional DCs (cDCs): FIG. 23D
Protocol: Tumors were chopped and digested in collagenase buffer as described previously (Ding et al., 2018 Cell Rep 25, 2972-2980.e2975). Single cell suspensions of tumor and ascites were obtained by filtering through 70 um strainers and treated with 1× eBioscience RBC lysis buffer (Thermo Fisher) before staining. Single cells suspensions were incubated with LIVE/DEAD Fixable Aqua Dead Cell Stain (Life Technologies, Cat #L34965) for 30 min and then blocked with anti-CD16/32 (Biolegend, clone 93) for 20 min on ice. Samples were then incubated with appropriate antibodies for 30 min on ice. Foxp3 staining buffer set (eBioscience, Cat #00-5523-00) was applied for intracellular markers staining. For the intracellular cytokine analysis, cells were stimulated with Leukocyte Activation Cocktail (BD Biosciences, Cat #550583) at 37° C. for 4-6 hours prior to FACS staining. The following antibodies were used in this study: antibodies were purchased from BioLegend unless otherwise indicated: CD45 (clone 30-F11), CD3ε (clone 145-2C11), CD4 (clone RM4-5), CD8 (clone 53-6.7), CD44 (clone IM7), CD62L (MEL-14), CD25 (PC61), IFNγ (clone XMG1.2), TNFα (clone MP6-XT22), CD11b (clone M1/70), CD11c […], F4/80 (clone BM8), Ly-6C (clone HK1.4), Ly-6G (clone 1A8), MHC-II (clone M5/114.15.2), CD80 (clone 16-10A1), CD86 (clone GL-1), MHC-I (clone KH114), FoxP3 (clone FJK-16 s; eBioscience), Phospho-IRF-3 (Ser396) (clone D601M, Cell signaling technology) and Phospho-TBK1/NAK (Ser172) (clone D52C2, Cell signaling technology). The following human antibodies were used in this study: cell surface markers includes CD45 (clone H130), CD11b (clone M1/70), CD11c (clone Bu15), CD80 (clone 2D10), CD86 (clone IT2.2), CD14 (clone 63D3), CD15 […], HLA-DR (clone L243) and HLA-A,B,C (clone W6/32); intracellular markers include CD163 (clone GHI/61), CD68 (clone Y1/82A) and CD206 (clone 15-2). Flow cytometry was performed on an LSRII (BD Biosciences) or Fortessa HTS (BD Biosciences) at DFCI Flow Cytometry Core, and all the data were analyzed using FlowJo software.

SMILES	BP cells' DNA damage (gH2AX) in response to olaparib ([1]; BP cells treated with CM of DMXAA-pre-treated TEMs, FIG. 7I)	proportion of TAMs ([2]; FIG. 23B)	ratio of M1/M2 ([2]; FIG. 23C)	STING pathway and activated (CD86^+) conventional DCs (cDCs) [2]	cytosolic dsDNA ([1]; 5 μM olaparib, two days, FIG. 5B)	γ-H2AX ([1]; olaparib, FIG. 5C)
Cc1ccc2c(=O)c3cccc(CC(=O)O)c3oc2c1C [DMXAA, 5,6-dimethyl-xanthenone-4-acetic acid]	restored					
COc1cc2cc(C(=O)CCC(=O)O)sc2cc1OC [MSA-2]		dramatically decreased	increase	activated the STING pathway and increased tumor-infiltrating activated (CD86^+) conventional DCs		
O=C(c1cc(Cc2n[nH]c(=O)c3ccccc23)ccc1F)N1CCN(C(=O)C2CC2)CC1 [olaparib]				activated the STING pathway and increased tumor-infiltrating activated (CD86^+) conventional DCs	induced accumulation of cytosolic dsDNAs	two-fold increase
